Data as given in patent US6376670B1, “Quinoline-indole antimicrobial agents, uses and compositions related thereto” (Sepracor Inc., priority 1997, dated 2002).
Where two headings read alike, the source gives them in different places.

How the values were obtained:
Experiment in all cases: Determination of MIC values (BHI broth, 96 well microtiter plate)
Type in all cases: cell-based
[1] = system: vancomycin-resistant Enterococcus spp. (VRE); details: Enterococcus, VRE, BHI broth, read-out: MIC VREF
Procedure, shortened: (§1)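 Broth microdilution in Brain-Heart Infusion with twofold dilution series from 25 µg/mL final and a no-compound control. Overnight incubation at 37° C in a CO2 atmosphere; visual growth endpoint gives the MIC.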

[2] = system: Streptococcus pneumoniae; details: Streptococcus pneumoniae, BHI broth, read-out: MIC S. pneu
Procedure, shortened: as §1

[3] = system: methicillin-resistant Staphylococcus aureus (MRSA); details: MRSA, BHI broth; for MIC: Staphylococcus aureus, read-out: MIC MRSA
Procedure, shortened: as §1

[4] = 16 h, 37° C., overnight (about 16 hours)
[5] = 37° C., overnight (about 16 hours)

Row | SMILES | MIC ([1]; VREF, overnight 37° C.) [µg/mL] | MIC ([2]; S. pneu, overnight 37° C.) [µg/mL] | MIC ([3]; overnight 37° C.) [µg/mL] | MIC ([1]; 16 h, 37° C., about 16 hours) [µg/mL] | MIC ([2]; 37° C., about 16 hours) [µg/mL] | MIC ([3]; 16 h, 37° C., about 16 hours) [µg/mL] | other results
1 | NCc1ccc(CNC(=O)c2cc(-c3c[nH]c4ccc(Cl)cc34)nc3cc(Br)ccc23)cc1 [Example 230] | < 7 | < 7 | < 7 | – | – | – | –
2 | Cc1[nH]c2ccc(Cl)cc2c1-c1ccc2cc(Cl)ccc2n1 [Example 384] | > 25 | < 7 | < 7 | – | – | – | –
3 | N#Cc1ccc2[nH]cc(-c3ccc4cc(Cl)ccc4n3)c2c1 [Example 200] | > 25 | > 25 | – | – | – | – | MIC MRSA ([3]; overnight 37° C.): < 7 µg/mL
4 | Cn1cc(-c2cc(C(=O)NCc3cccc(CN)c3)c3ccc(I)cc3n2)c2cc(Br)ccc21 [Example 330] | < 7 | < 7 | < 7 | – | – | – | –
5 | CN(C)CCNCC#Cc1ccc2nc(-c3cn(C)c4ccc(Br)cc34)cc(C(=O)NCCN)c2c1 [Example 402] | – | – | – | < 7 | < 7 | < 7 | –
6 | Cn1cc(-c2cc(C(=O)NCCN)c3cc(C#CCN4CCCCC4)ccc3n2)c2cc(Br)ccc21 [Example 377] | < 7 | < 7 | < 7 | – | – | – | –
7 | NCC1CCCC(CNC(=O)c2cc(-c3c[nH]c4ccc(Br)cc34)nc3c(Cl)c(Cl)ccc23)C1 (stereo not drawn) [Example 278] | < 7 | < 7 | < 7 | – | – | – | –
8 | NCCNC(=O)c1cc(-c2c[nH]c3ccc(Br)cc23)nc2c(Cl)c(Cl)ccc12 [Example 279] | < 7 | < 7 | < 7 | – | – | – | –
9 | NCc1ccc(CNC(=O)c2cc(-c3c[nH]c4ccc(Br)cc34)nc3cc(Cl)c(C#CCN4CC=CCC4)cc23)cc1 [Example 282] | < 7 | < 7 | < 7 | – | – | – | –
10 | NCc1ccc(CNC(=O)c2cc(-c3c[nH]c4ccc(Br)cc34)nc3ccc(-c4ccccc4)cc23)cc1 [Example 96] | – | – | – | – | – | – | MIC [1, 4]: < 7 µg/mL; MIC [2, 5]: < 7 µg/mL; MIC [3, 4]: < 7 µg/mL
11 | NCC1CCCC(CNC(=O)c2cc(-c3c[nH]c4ccc(Br)cc34)nc3cc(Cl)c(I)cc23)C1 (stereo not drawn) [Example 245] | < 7 | < 7 | < 7 | – | – | – | –
12 | CC(=O)Oc1cccc2[nH]cc(-c3cc(Cl)c4ccccc4n3)c12 [Example 351] | > 25 | < 7 | < 7 | – | – | – | –
13 | Cn1cc(-c2cc(C(=O)NCc3ccc(CN)cc3)c3ccc(I)cc3n2)c2cc(Br)ccc21 [Example 328] | > 25 | < 7 | > 25 | – | – | – | –
14 | Clc1ccc2nc(-c3c[nH]c4c(Cl)cccc34)ccc2c1 [Example 354] | > 25 | > 25 | > 25 | – | – | – | –
15 | Cc1cccc2ccc(-c3c[nH]c4cc(Cl)ccc34)nc12 [Example 410] | – | – | – | > 25 | < 25 | < 25 | –
16 | NCc1ccc(CNC(=O)c2cc(-c3c[nH]c4ccc(Br)cc34)nc3cc(I)ccc23)cc1 [Example 249] | < 7 | < 7 | < 7 | – | – | – | –
17 | Cn1cc(-c2ccc3cc(Cl)ccc3n2)c2cc(C#N)ccc21 [Example 218] | > 25 | > 25 | < 7 | – | – | – | –
18 | Cc1ccc2[nH]cc(-c3ccc4cccc(C)c4n3)c2c1 [Example 411] | – | – | – | > 25 | > 25 | > 25 | –

Row | SMILES | MIC ([1]; VREF, overnight 37° C.) [µg/mL] | MIC ([2]; S. pneu, overnight 37° C.) [µg/mL] | MIC ([3]; overnight 37° C.) [µg/mL] | MIC ([1]; 16 h, 37° C., about 16 hours) [µg/mL] | MIC ([2]; 37° C., about 16 hours) [µg/mL] | MIC ([3]; 16 h, 37° C., about 16 hours) [µg/mL] | other results
19 | COC(=O)c1cc(-c2c[nH]c3ccc(Br)cc23)nc2cc(F)ccc12 [Example 486] | – | – | – | < 7 | < 7 | < 7 | –
20 | NCc1ccc(CNC(=O)c2cc(-c3c[nH]c4ccc(Br)cc34)nc3cc(F)ccc23)cc1 [Example 254] | < 7 | < 7 | < 7 | – | – | – | –
21 | Cn1cc(-c2cc(C(=O)NCc3ccc(CN)cc3)c3cc(C#CCN4CC=CC4)ccc3n2)c2cc(Br)ccc21 [Example 396] | > 25 | > 25 | > 25 | – | – | – | –
22 | NCc1ccc(CNC(=O)c2cc(-c3cnc4ccccc4c3)nc3ccc(I)cc23)cc1 [Example 151] | – | – | – | – | – | – | MIC [1, 4]: > 25 µg/mL; MIC [2, 5]: > 25 µg/mL; MIC [3, 4]: > 25 µg/mL
23 | Fc1ccc2[nH]cc(-c3cc(Cl)c4ccccc4n3)c2c1 [Example 339] | < 7 | < 7 | < 7 | – | – | – | –
24 | NCc1ccc(CNC(=O)c2cc(-c3c[nH]c4ccc(Br)cc34)nc3ccc(C(F)(F)F)cc23)cc1 [Example 103] | – | – | – | – | – | – | MIC [1, 4]: < 7 µg/mL; MIC [2, 5]: < 7 µg/mL; MIC [3, 4]: < 7 µg/mL
25 | NCc1ccc(CNC(=O)c2cc(-c3c[nH]c4ccc(Cl)cc34)nc3c(Br)cccc23)cc1 [Example 231] | < 7 | < 7 | < 7 | – | – | – | –
26 | Cc1ccc2nc(-c3c[nH]c4ccc(Br)cc34)cc(C(=O)NCc3cccc(CN)c3)c2c1 [Example 122] | – | – | – | – | – | – | MIC [1, 4]: < 7 µg/mL; MIC [2, 5]: < 7 µg/mL; MIC [3, 4]: < 7 µg/mL
27 | CN(CC#Cc1ccc2nc(-c3cn(C)c4ccc(Br)cc34)cc(C(=O)NCCN)c2c1)C1CCCCC1 [Example 407] | – | – | – | < 7 | < 7 | < 7 | –
28 | NCCNC(=O)c1cc(-c2c[nH]c3ccc(Br)cc23)nc2c(Cl)cc(I)cc12 [Example 314] | < 7 | < 7 | < 7 | – | – | – | –
29 | NCc1ccc(CNC(=O)c2cc(-c3c[nH]c4ccc(Br)cc34)nc3cc(Cl)c(I)cc23)cc1 [Example 158] | – | – | – | – | – | – | MIC [1, 4]: < 7 µg/mL; MIC [2, 5]: < 7 µg/mL; MIC [3, 4]: < 7 µg/mL
30 | COc1ccc2nc(-c3c[nH]c4ccc(Cl)cc34)ccc2c1 [Example 416] | – | – | – | > 25 | < 7 | < 7 | –
31 | Brc1ccc2[nH]cc(-c3nc4ccc(I)cc4c4c3CCO4)c2c1 [Example 303] | > 25 | < 7 | < 7 | – | – | – | –
32 | CN(C)CCNCC#Cc1ccc2nc(-c3cn(C)c4ccc(Br)cc34)cc(C(=O)NCc3ccc(CN)cc3)c2c1 [Example 392] | < 7 | < 7 | < 7 | – | – | – | –
33 | Cn1cc(-c2cc(C(=O)NCC3CCC(CN)CC3)c3cc(Cl)ccc3n2)c2cc(Br)ccc21 (stereo not drawn) [Example 368] | < 7 | < 7 | < 7 | – | – | – | –
34 | Cn1cc(-c2ccc3cc(Cl)ccc3n2)c2ccc(Cl)cc21 [Example 219] | > 25 | < 25 | > 25 | – | – | – | –
35 | NCc1ccc(CNC(=O)c2cc(-c3c[nH]c4ccc(Br)cc34)nc3c(Cl)cc(I)cc23)cc1 [Example 102] | – | – | – | – | – | – | MIC [1, 4]: < 7 µg/mL; MIC [2, 5]: < 7 µg/mL; MIC [3, 4]: < 7 µg/mL

Further lines, with some results ahead:

Row | MIC ([1]; VREF, overnight 37° C.) [µg/mL] | MIC ([2]; S. pneu, overnight 37° C.) [µg/mL] | MIC ([3]; overnight 37° C.) [µg/mL] | MIC ([1]; 16 h, 37° C., about 16 hours) [µg/mL] | MIC ([2]; 37° C., about 16 hours) [µg/mL] | MIC ([3]; 16 h, 37° C., about 16 hours) [µg/mL] | SMILES | other results
36 | – | – | – | > 25 | > 25 | > 25 | Cc1cccc2ccc(-c3c[nH]c4ccc(Br)cc34)nc12 [Example 422] | –
37 | – | – | – | < 7 | < 7 | < 7 | NCc1cc(-c2c[nH]c3ccc(Br)cc23)nc2cc(Cl)ccc12 [Example 511] | –
38 | – | – | – | > 25 | > 25 | > 25 | Cc1ccc2nc(-c3c[nH]c4cc(F)ccc34)ccc2c1 [Example 435] | –
39 | – | – | – | < 7 | < 7 | < 7 | CNCCN(C)C(=O)c1cc(-c2c[nH]c3ccc(Br)cc23)nc2cc(Cl)c(C#CCN3CCCCC3)cc12 [Example 513] | –
40 | – | – | – | > 25 | < 7 | < 7 | CC(C)CNC(=O)c1cc(-c2c[nH]c3ccc(Br)cc23)nc2ccc(C#CCN3CCCCC3)cc12 [Example 519] | –
41 | – | – | – | < 7 | < 7 | < 7 | NCCNC(=O)c1cc(-c2c[nH]c3ccc(Br)cc23)nc2ccc(C#CCN3CC=CCC3)cc12 [Example 526] | –
42 | – | – | – | > 25 | > 25 | > 25 | N#Cc1ccc2[nH]cc(-c3cc(Cl)c4ccc(Cl)cc4n3)c2c1 [Example 462] | –
43 | – | – | – | < 7 | < 7 | < 7 | CN(C)CCN(C)C(=O)c1cc(-c2c[nH]c3ccc(Br)cc23)nc2cc(Cl)ccc12 [Example 505] | –
44 | – | – | – | > 25 | < 7 | < 7 | CC(C)(C)NC(=O)NCc1cc(-c2c[nH]c3ccc(Br)cc23)nc2cc(Cl)ccc12 [Example 521] | –
45 | – | – | – | < 7 | < 7 | < 7 | CN(CC[N+](C)(C)C)C(=O)c1cc(-c2c[nH]c3ccc(Br)cc23)nc2cc(Cl)ccc12 [Example 520] | –
46 | – | – | – | < 7 | < 7 | < 7 | NCC(O)CNC(=O)c1cc(-c2c[nH]c3ccc(Br)cc23)nc2cc(F)ccc12 (stereo not drawn) [Example 532] | –
47 | – | – | – | < 7 | < 7 | < 7 | CN(C)CCN(C)C(=O)c1cc(-c2c[nH]c3ccc(Br)cc23)nc2cc(Cl)c(C#CCN3CCCCC3)cc12 [Example 512] | –
48 | – | – | – | < 7 | < 7 | < 7 | NC(=O)c1cc(-c2c[nH]c3ccc(Br)cc23)nc2ccc(C#CCN3CCCCC3)cc12 [Example 483] | –
49 | – | – | – | < 7 | < 7 | < 7 | NCC(O)CNC(=O)c1cc(-c2c[nH]c3ccc(Br)cc23)nc2ccc(C#CCN3CCCCC3)cc12 (stereo not drawn) [Example 534] | –
50 | – | – | – | > 25 | < 7 | < 7 | OCc1cc(-c2c[nH]c3ccc(Br)cc23)nc2ccc(I)cc12 [Example 452] | –
51 | – | – | – | > 25 | > 25 | > 25 | Cc1ccc2nc(-c3c[nH]c4ccc(Cl)cc34)ccc2c1 [Example 441] | –
52 | – | – | – | > 25 | > 25 | > 25 | COc1ccc2nc(-c3c[nH]c4ccccc34)ccc2c1 [Example 480] | –
53 | – | – | – | > 25 | > 25 | > 25 | Cc1ccc2nc(-c3c[nH]c4c(C)cccc34)ccc2c1 [Example 467] | –
